Experiments:
Plasminogen = Plasminogen (Homo sapiens, UniProt P00747); experiment: Inhibition pf human plasmin using Mes-Darg-Phe-Arg-AMC as substrate by fluorescence assay
Coagulation factor X = Coagulation factor X (Homo sapiens, UniProt P00742); experiment: Inhibition of human factor Xa using Mes-Darg-Pro-Arg-AMC as flurogenic substrate by fluorescence assay
Prothrombin = Prothrombin (Bos taurus, UniProt P00735); experiment: Inhibition of bovine thrombin using Tos-Gly-Pro-Arg-AMC as substrate by fluorescence assay

Measured: Ki

Coagulation factor X, sequence (P00742 41-179 limits assumed): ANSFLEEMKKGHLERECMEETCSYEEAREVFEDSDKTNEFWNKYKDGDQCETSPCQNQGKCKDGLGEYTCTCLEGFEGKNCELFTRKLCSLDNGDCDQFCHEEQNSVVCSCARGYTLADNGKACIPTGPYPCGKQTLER
Coagulation factor X, sequence (P00742 235-488 limits assumed): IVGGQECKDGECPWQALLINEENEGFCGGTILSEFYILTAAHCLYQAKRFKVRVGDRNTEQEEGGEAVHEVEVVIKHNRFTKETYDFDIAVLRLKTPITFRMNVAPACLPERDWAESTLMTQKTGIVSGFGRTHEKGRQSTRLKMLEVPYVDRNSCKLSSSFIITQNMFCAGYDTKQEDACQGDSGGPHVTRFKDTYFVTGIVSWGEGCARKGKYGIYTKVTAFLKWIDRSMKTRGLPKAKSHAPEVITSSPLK
Plasminogen, sequence (P00747 97-580 limits assumed): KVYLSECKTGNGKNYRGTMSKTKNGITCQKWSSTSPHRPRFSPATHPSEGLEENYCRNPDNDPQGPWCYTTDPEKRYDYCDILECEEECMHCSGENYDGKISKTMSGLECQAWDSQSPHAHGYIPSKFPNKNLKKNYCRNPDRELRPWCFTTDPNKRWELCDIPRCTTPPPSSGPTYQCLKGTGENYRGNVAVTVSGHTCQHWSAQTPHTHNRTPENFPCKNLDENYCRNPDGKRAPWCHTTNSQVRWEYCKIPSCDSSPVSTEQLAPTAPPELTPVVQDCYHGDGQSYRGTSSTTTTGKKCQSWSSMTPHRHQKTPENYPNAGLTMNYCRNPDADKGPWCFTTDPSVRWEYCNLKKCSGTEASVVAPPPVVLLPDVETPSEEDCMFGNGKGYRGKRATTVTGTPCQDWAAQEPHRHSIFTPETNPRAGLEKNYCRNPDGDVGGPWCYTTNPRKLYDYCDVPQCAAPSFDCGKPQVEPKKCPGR
Plasminogen, sequence (P00747 581-810 limits assumed): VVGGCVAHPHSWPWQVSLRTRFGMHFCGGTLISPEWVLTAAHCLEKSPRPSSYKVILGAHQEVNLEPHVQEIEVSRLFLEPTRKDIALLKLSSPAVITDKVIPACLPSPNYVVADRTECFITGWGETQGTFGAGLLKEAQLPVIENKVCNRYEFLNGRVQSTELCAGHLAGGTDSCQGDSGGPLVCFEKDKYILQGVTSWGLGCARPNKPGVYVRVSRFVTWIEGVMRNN

CC(C)(C)[C@H](NC(=O)[C@H](CCONC(=N)N)NC(=O)Cc1ccc(CNC(=N)N)cc1)C(=O)N[C@@H](CCONC(=N)N)C(=O)NCc1ccc(C(=N)N)cc1
> 3 µM: all assays above
